Source: ChEMBL document CHEMBL1201862, “PubChem BioAssay data set” (2004)
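Cells were grown in 96-well plates and exposed to each compound for 48 hours at five concentrations; endpoints were interpolated linearly between bracketing concentrations, or set to the highest concentration if not reached. GI50 = concentration required for 50% inhibition of growth.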 Activity calls are given as the source filed them. No stated cut-off is given here; in the data, active = GI50 up to about 1.1 µM and inactive = higher.

Key:
Assay in all cases: NCI tumour cell line growth inhibition, 48 h
HT-29 = system: HT-29
HCT-116 = system: HCT-116
SF-539 = system: SF-539
ACHN = system: ACHN
T47D = system: T47D
BT-549 = system: BT-549
PC-3 = system: PC-3
786-0 = system: 786-0
MDA-MB-231 = system: MDA-MB-231
SK-MEL-28 = system: SK-MEL-28
Malme-3M = system: Malme-3M
OVCAR-5 = system: OVCAR-5
CCRF-CEM = system: CCRF-CEM
MDA-N = system: MDA-N
KM12 = system: KM12
EKVX = system: EKVX
HCC 2998 = system: HCC 2998
CAKI-1 = system: CAKI-1
NCI-H460 = system: NCI-H460
SNB-78 = system: SNB-78

Measured: GI50

OC1(c2ccc(Cl)cc2)c2c(c3ccccc3c3ccccc23)C2=NCCN21 (configuration not stated)
inactive: HT-29 14.6 µM | HCT-116 10.9 µM | SF-539 11.2 µM | ACHN 14.5 µM | T47D 15.4 µM | BT-549 16.5 µM | PC-3 14.6 µM | 786-0 4.02 µM | MDA-MB-231 12 µM | SK-MEL-28 18.3 µM | Malme-3M 16.5 µM | OVCAR-5 17 µM | CCRF-CEM > 100 µM | MDA-N 19.8 µM | KM12 16.7 µM | EKVX 13.6 µM | HCC 2998 1.98 µM | CAKI-1 19.4 µM | NCI-H460 15.8 µM

O=[N+]([O-])c1ccc(COc2cccc3cccnc23)cc1
inactive: HT-29 31.6 µM | HCT-116 25.2 µM | SF-539 29.6 µM | ACHN 19.6 µM | 786-0 17.2 µM | SNB-78 38.2 µM | SK-MEL-28 14.8 µM | Malme-3M 33 µM | OVCAR-5 38.5 µM | CCRF-CEM 3.94 µM | KM12 23.8 µM | EKVX 18.9 µM | HCC 2998 22.3 µM | CAKI-1 30.3 µM | NCI-H460 1.23 µM

Nc1ncnc2c1ncn2C1CCC(CO)O1 (configuration not stated)
inactive: HT-29 > 61.1 µM | HCT-116 > 100 µM | SF-539 > 100 µM | SNB-78 > 100 µM | SK-MEL-28 > 63.2 µM | Malme-3M > 100 µM | OVCAR-5 > 100 µM | CCRF-CEM > 100 µM | KM12 > 100 µM | EKVX > 87.3 µM | HCC 2998 > 77.4 µM | CAKI-1 > 100 µM | NCI-H460 > 100 µM

Nc1nc(=O)[nH]c2c1cnn2C1CCCCO1 (configuration not stated)
inactive: HT-29 > 100 µM | HCT-116 > 100 µM | SF-539 > 100 µM | ACHN > 100 µM | SNB-78 > 100 µM | SK-MEL-28 > 100 µM | Malme-3M > 100 µM | OVCAR-5 64 µM | CCRF-CEM > 100 µM | KM12 > 100 µM | EKVX > 100 µM | HCC 2998 > 100 µM | CAKI-1 > 100 µM | NCI-H460 > 100 µM

CCC(C)CN1C(=O)NC(Cc2ccccc2)C1=O (configuration not stated)
inactive: HT-29 > 100 µM | SF-539 > 100 µM | ACHN > 100 µM | SNB-78 > 100 µM | SK-MEL-28 > 100 µM | Malme-3M > 100 µM | OVCAR-5 > 100 µM | KM12 > 100 µM | EKVX > 100 µM | HCC 2998 > 100 µM | CAKI-1 > 100 µM | NCI-H460 > 100 µM

COc1cc([C@@H]2c3cc4c(cc3[C@@H](c3c(O)cc(O)c5c3O[C@H](c3ccc(O)c(O)c3)[C@H](OC(=O)c3cc(O)c(O)c(O)c3)C5)[C@H]3COC(=O)[C@H]23)OCO4)cc(OC)c1O
inactive: HT-29 25 µM | HCT-116 23.7 µM | SF-539 24.1 µM | ACHN 53.7 µM | T47D > 100 µM | BT-549 > 100 µM | PC-3 42.8 µM | 786-0 22.5 µM | MDA-MB-231 57.8 µM | SK-MEL-28 79.8 µM | Malme-3M > 100 µM | OVCAR-5 39.4 µM | CCRF-CEM 24.4 µM | MDA-N 18.4 µM | KM12 32 µM | EKVX 44.7 µM | HCC 2998 33.8 µM | CAKI-1 76.6 µM | NCI-H460 32.5 µM

COc1cccc(/C=N/n2c(-c3ccccc3)n[nH]c2=O)c1
inactive: HT-29 > 100 µM | HCT-116 28.2 µM | SF-539 28.1 µM | ACHN > 100 µM | T47D 27.5 µM | BT-549 26.9 µM | PC-3 > 100 µM | 786-0 40.8 µM | MDA-MB-231 29.5 µM | SK-MEL-28 > 100 µM | Malme-3M > 100 µM | OVCAR-5 > 100 µM | CCRF-CEM > 100 µM | MDA-N > 100 µM | KM12 85.5 µM | EKVX > 100 µM | HCC 2998 > 100 µM | CAKI-1 53 µM | NCI-H460 42.2 µM

O=C(Nc1ccc(Cl)cc1Cl)/C(Cl)=C1/Sc2ccccc2NC1=O
inactive: HCT-116 23 µM | SF-539 30.2 µM | ACHN 38 µM | 786-0 45.3 µM | SNB-78 44.9 µM | SK-MEL-28 23.6 µM | Malme-3M 20 µM | OVCAR-5 52.6 µM | CCRF-CEM 22.8 µM | EKVX 58.1 µM | HCC 2998 32 µM | CAKI-1 41.2 µM | NCI-H460 38.6 µM

CC(C)=CC(=O)Cc1nc2ccccc2[nH]c1=O
inactive: HT-29 > 100 µM | HCT-116 > 100 µM | SF-539 > 100 µM | ACHN > 100 µM | 786-0 82.4 µM | SNB-78 > 100 µM | SK-MEL-28 > 100 µM | Malme-3M > 100 µM | OVCAR-5 > 100 µM | CCRF-CEM 64.7 µM | KM12 > 100 µM | EKVX 47.3 µM | HCC 2998 > 100 µM | CAKI-1 76.7 µM | NCI-H460 > 100 µM

C=C=CC(NC(=O)c1ccccc1)(C(=O)O)C(F)(F)F (configuration not stated)
inactive: HT-29 > 100 µM | HCT-116 > 100 µM | SF-539 > 100 µM | ACHN > 100 µM | SNB-78 > 100 µM | SK-MEL-28 > 100 µM | Malme-3M > 100 µM | OVCAR-5 > 100 µM | CCRF-CEM > 100 µM | KM12 > 100 µM | EKVX > 100 µM | HCC 2998 > 100 µM | CAKI-1 > 10 µM | NCI-H460 > 100 µM

Nc1nc(N)c2nc(-c3ccco3)cnc2n1
inactive: HT-29 76.7 µM | HCT-116 34.4 µM | SF-539 38.2 µM | ACHN 59.4 µM | 786-0 27.1 µM | SNB-78 > 100 µM | SK-MEL-28 92 µM | Malme-3M 46.5 µM | OVCAR-5 > 100 µM | CCRF-CEM 43.1 µM | KM12 93.5 µM | EKVX 18.3 µM | HCC 2998 > 100 µM | CAKI-1 25 µM | NCI-H460 35.3 µM

O=C(O)[C@@H](NS(=O)(=O)c1ccc(F)cc1)c1ccccc1
inactive: HT-29 > 100 µM | HCT-116 > 100 µM | SF-539 > 100 µM | ACHN > 100 µM | 786-0 > 100 µM | SNB-78 > 100 µM | SK-MEL-28 > 100 µM | Malme-3M > 100 µM | OVCAR-5 > 100 µM | CCRF-CEM > 100 µM | EKVX > 100 µM | HCC 2998 > 100 µM | CAKI-1 > 100 µM | NCI-H460 > 100 µM

C=CCc1cc(OC)c2c(c1)C(OC(C)=O)CC(c1ccc(OC)c(OC)c1)O2 (configuration not stated)
inactive: HT-29 > 100 µM | HCT-116 > 100 µM | SF-539 47.4 µM | ACHN > 100 µM | SNB-78 > 100 µM | SK-MEL-28 > 100 µM | Malme-3M > 100 µM | OVCAR-5 > 100 µM | CCRF-CEM > 100 µM | KM12 > 100 µM | EKVX > 100 µM | HCC 2998 > 100 µM | CAKI-1 > 100 µM | NCI-H460 > 100 µM

C=C(N=[N+]=[N-])c1cn(C2CC(O)C(CO)O2)c(=O)[nH]c1=O (configuration not stated)
inactive: HT-29 > 100 µM | HCT-116 > 100 µM | SF-539 > 100 µM | ACHN > 100 µM | 786-0 > 100 µM | SNB-78 > 100 µM | SK-MEL-28 > 100 µM | Malme-3M > 100 µM | OVCAR-5 > 100 µM | CCRF-CEM > 100 µM | KM12 > 100 µM | EKVX > 100 µM | HCC 2998 > 100 µM | CAKI-1 > 100 µM | NCI-H460 > 100 µM

COc1ccc(Cc2c3cc(OC)c(OC)cc3cc[n+]2C)cc1
inactive: HT-29 13.4 µM | HCT-116 15 µM | SF-539 18.7 µM | ACHN > 29.2 µM | 786-0 > 23.8 µM | SNB-78 58.1 µM | SK-MEL-28 32.6 µM | Malme-3M 27.2 µM | OVCAR-5 > 100 µM | KM12 9.29 µM | EKVX > 39 µM | HCC 2998 > 25.2 µM | CAKI-1 > 48.3 µM

Nc1nc(SCc2ccccc2Cl)c2[nH]cnc2n1
inactive: HCT-116 59.8 µM | SF-539 74.8 µM | ACHN 31.5 µM | SNB-78 > 100 µM | SK-MEL-28 68.9 µM | Malme-3M 70.8 µM | OVCAR-5 96.4 µM | CCRF-CEM 54.5 µM | KM12 74.3 µM | EKVX 85.9 µM | HCC 2998 > 100 µM | NCI-H460 48.9 µM

CCOC(=O)C(=O)NCCCN1CCOCC1
inactive: HT-29 > 100 µM | HCT-116 > 100 µM | SF-539 > 100 µM | ACHN > 100 µM | SNB-78 > 100 µM | SK-MEL-28 > 100 µM | Malme-3M > 100 µM | OVCAR-5 > 100 µM | CCRF-CEM > 100 µM | KM12 > 100 µM | EKVX > 100 µM | HCC 2998 > 100 µM | CAKI-1 > 100 µM | NCI-H460 > 100 µM

Cc1cccc(C(=O)c2cccc3ccccc23)c1C(=O)O
inactive: HT-29 > 100 µM | HCT-116 > 100 µM | SF-539 > 100 µM | ACHN > 100 µM | 786-0 > 100 µM | SNB-78 > 100 µM | SK-MEL-28 > 100 µM | Malme-3M > 100 µM | OVCAR-5 > 100 µM | CCRF-CEM > 100 µM | EKVX > 100 µM | NCI-H460 > 100 µM

COc1ccc(/C=C/c2cc(OC)c(OCc3ccccc3)c(OC)c2)cc1
inactive: HT-29 27.9 µM | HCT-116 > 100 µM | SF-539 > 100 µM | ACHN > 100 µM | 786-0 > 100 µM | SNB-78 > 100 µM | SK-MEL-28 56.6 µM | Malme-3M > 100 µM | OVCAR-5 8.99 µM | CCRF-CEM > 100 µM | KM12 > 100 µM | EKVX > 100 µM | HCC 2998 > 100 µM | CAKI-1 > 100 µM | NCI-H460 > 100 µM
